According to patent US11370791B2, “Solid polymorphs of a FLNA-binding compound and its hydrochloride salts” (Pain Therapeutics, Inc., priority 2019, dated 2022):
Entries after “also recorded” stand apart in the source; their conditions may differ. Counter-ions that a name gives are not always drawn. Like-named read-outs stand apart in the source and are kept apart here.

Key:
filamin-A (FLNA) = target: T1, filamin-A (FLNA) (Homo sapiens, UniProt P21333); conditions: higher affinity binding site of the two sites; membrane preparation from A7 or SK-N-MC cells; cited from earlier work
T1 construct: in a membrane preparation from A7 cells or SK-N-MC cells; endogenous in cells; host or cells: A7 cells or SK-N-MC cells (membrane preparation)
T1 sequence (P21333 whole entry): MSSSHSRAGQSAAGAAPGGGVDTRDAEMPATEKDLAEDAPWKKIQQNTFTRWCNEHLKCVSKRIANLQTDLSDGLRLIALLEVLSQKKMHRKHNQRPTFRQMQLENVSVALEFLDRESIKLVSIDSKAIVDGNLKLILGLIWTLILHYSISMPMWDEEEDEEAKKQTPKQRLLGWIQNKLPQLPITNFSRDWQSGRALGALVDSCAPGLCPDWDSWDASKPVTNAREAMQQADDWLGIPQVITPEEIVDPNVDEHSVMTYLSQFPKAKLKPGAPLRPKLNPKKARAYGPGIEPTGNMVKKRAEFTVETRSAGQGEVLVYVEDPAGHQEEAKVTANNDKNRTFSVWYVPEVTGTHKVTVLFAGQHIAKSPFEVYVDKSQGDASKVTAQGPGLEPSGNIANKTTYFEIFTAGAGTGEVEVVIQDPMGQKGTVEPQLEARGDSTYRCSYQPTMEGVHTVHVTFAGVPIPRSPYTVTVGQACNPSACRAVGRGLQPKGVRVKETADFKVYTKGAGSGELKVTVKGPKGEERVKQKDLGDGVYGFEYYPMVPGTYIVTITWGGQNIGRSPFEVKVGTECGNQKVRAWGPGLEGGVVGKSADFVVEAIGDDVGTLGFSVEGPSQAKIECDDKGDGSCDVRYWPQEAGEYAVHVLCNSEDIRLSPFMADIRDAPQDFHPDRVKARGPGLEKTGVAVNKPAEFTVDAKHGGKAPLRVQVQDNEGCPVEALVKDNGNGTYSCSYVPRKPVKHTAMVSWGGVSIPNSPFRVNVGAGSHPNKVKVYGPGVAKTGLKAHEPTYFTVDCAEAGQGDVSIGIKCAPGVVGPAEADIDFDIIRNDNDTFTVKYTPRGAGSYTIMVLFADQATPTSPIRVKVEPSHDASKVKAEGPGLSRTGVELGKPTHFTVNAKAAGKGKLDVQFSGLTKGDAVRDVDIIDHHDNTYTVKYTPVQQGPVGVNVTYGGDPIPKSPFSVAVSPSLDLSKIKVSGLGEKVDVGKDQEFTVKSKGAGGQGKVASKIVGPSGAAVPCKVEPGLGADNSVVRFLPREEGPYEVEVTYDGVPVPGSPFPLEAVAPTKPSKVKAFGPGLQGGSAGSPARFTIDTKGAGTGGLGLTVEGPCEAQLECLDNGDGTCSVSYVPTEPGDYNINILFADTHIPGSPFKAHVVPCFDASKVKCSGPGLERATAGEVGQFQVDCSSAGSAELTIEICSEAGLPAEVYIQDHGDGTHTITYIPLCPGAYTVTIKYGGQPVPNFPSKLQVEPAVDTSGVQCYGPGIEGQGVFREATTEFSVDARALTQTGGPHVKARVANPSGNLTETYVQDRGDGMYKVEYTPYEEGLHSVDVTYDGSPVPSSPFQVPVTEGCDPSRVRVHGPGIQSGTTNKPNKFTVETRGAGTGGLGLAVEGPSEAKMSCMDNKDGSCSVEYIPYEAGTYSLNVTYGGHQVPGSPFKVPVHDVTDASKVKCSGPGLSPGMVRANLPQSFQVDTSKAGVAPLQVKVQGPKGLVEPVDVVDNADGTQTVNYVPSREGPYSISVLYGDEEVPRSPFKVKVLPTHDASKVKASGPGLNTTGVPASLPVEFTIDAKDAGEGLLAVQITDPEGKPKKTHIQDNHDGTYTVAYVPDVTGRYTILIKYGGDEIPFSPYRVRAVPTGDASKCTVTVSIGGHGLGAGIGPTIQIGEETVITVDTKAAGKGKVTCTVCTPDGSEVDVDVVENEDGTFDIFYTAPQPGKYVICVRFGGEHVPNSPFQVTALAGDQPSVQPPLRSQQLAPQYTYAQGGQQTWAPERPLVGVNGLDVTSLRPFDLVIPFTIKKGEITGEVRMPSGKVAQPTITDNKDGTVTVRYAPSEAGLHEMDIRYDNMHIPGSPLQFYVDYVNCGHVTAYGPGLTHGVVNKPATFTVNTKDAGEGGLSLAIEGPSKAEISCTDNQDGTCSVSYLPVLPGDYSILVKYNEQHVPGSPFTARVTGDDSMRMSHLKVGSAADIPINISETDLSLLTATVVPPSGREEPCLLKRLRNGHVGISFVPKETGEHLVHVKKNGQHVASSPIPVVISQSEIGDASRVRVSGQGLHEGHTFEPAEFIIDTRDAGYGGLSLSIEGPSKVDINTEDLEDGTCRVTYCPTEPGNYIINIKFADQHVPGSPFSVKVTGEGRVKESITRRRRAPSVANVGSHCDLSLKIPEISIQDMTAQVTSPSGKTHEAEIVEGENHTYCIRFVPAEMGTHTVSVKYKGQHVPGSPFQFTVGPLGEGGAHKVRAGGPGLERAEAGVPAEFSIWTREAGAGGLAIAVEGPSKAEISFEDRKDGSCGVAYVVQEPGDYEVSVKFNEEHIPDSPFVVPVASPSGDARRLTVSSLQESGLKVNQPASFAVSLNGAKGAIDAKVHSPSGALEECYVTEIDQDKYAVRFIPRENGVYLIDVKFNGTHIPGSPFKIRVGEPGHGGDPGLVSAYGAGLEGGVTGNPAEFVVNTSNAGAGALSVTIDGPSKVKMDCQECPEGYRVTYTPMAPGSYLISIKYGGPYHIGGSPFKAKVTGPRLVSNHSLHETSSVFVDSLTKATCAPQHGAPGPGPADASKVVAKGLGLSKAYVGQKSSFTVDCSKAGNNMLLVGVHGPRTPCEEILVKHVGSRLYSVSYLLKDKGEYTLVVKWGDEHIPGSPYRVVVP

[1] = pKa analysis, potentiometric titration; assay type: physicochemical; conditions: 22° C., ISA water (ionic strength 0.15, KCl)
Protocol: The Compound titration was performed at 22° C. in ISA water. The weighed amount of TC (2.40 mg) was placed into a titration vial. ISA water (15 mL) was delivered automatically to the vial. The pH value of the solution was adjusted to 3 by adding 0.5 M HCl automatically. The titration with 0.5 M KOH was performed automatically until a pH value of 11.5 was reached. One additional mL of ISA water was added to the titration vial to perform the second titration and third titration, per titration respectively. The datasets for the three titrations were combined in the Refinement Pro program to create a Multiset for pKa calculation.
First, the pKa measurements and calculations for Compound C0105 were performed with the presumption that there were two basic ionizable groups. […] Then the pKa calculations for the Compound were performed with the presumption that there was one basic ionizable group.

[2] = 1 week stability studies (HPLC purity, XRPD, appearance); assay type: physicochemical; conditions: for Observations T = 0 / HPLC Purity T = 0: start of stability study
Protocol: Each salt formed was exposed to environments of 40° C./75% RH (open vial), elevated temperature (80° C., open vial) and ambient light (about 22° C. in a closed vial), for 1 week to assess both chemical and physical stability. Resulting solids were analyzed by X-ray powder diffraction (XRPD) to establish if any changes had occurred and by HPLC to determine purity.

[3] = dynamic vapor sorption (DVS); assay type: physicochemical; conditions: for hygroscopicity by DVS: 0%-90% RH; for hysteresis: at 0% RH
Protocol: Approximately 10 mg of sample was placed into a glass vapor sorption balance pan and loaded into a DVS-1 dynamic vapor sorption balance by Surface Measurement Systems. […] After completion of the sorption cycle, the sample was dried using the same procedure, from 90% RH down to 0% RH. The weight change during the sorption/desorption cycles were plotted, permitting the hygroscopic nature of the sample to be determined.

[4] = hydration studies, slurries in IPA/water mixtures; assay type: physicochemical; conditions: for Observations, hydration study: IPA/water
[5] = solvent solubility screen; conditions: for solubility: 40 °C
[6] = 40° C./75% RH, open vial, dihydrochloride monohydrate
[7] = 40° C./75% RH, dihydrochloride monohydrate
[8] = 80° C., open vial, dihydrochloride monohydrate
[9] = 80° C., dihydrochloride monohydrate
[10] = Ambient (light, about 22° C., closed vial)
[11] = Ambient (light, about 22° C., closed vial), dihydrochloride monohydrate
[12] = ambient, dihydrochloride monohydrate
[13] = between 70% and 0% RH, dihydrochloride monohydrate
[14] = 1,2-dichloroethene, organic solvent or mixture
[15] = 2-MeTHF, organic solvent or mixture
[16] = 2-butanol, organic solvent or mixture
[17] = 2-propanol, organic solvent or mixture
[18] = 2-propanol:water (10%), organic solvent or mixture
[19] = acetone, organic solvent or mixture
[20] = acetone:water (5%), organic solvent or mixture
[21] = acetone:water (20%), organic solvent or mixture
[22] = acetonitrile, organic solvent or mixture
[23] = cyclohexane, organic solvent or mixture
[24] = dimethylacetamide, organic solvent or mixture
[25] = dimethylsulfoxide, organic solvent or mixture
[26] = ethanol, organic solvent or mixture
[27] = ethyl acetate, organic solvent or mixture
[28] = heptane, organic solvent or mixture
[29] = isopropyl acetate, organic solvent or mixture
[30] = methanol, organic solvent or mixture
[31] = methyl acetate, organic solvent or mixture
[32] = methyl ethyl ketone, organic solvent or mixture
[33] = methyl isobutyl ketone, organic solvent or mixture
[34] = tert-butyl methyl ether, organic solvent or mixture
[35] = tetrahydrofuran, organic solvent or mixture
[36] = toluene, organic solvent or mixture

## CN1CCC2(CC1)NCC(=O)N2Cc1ccccc1 [Compound C0105, 1-benzyl-8-methyl-1,4,8-triazaspiro[4.5]-decan-2-one]
filamin-A (FLNA)
  EC50, inhibition of [3H]NLX binding: 10^−12 to 10^−13 M
[1]; higher value
  pKa: 8
[1]; lower value
  pKa: 1.5

## CN1CCC2(CC1)NCC(=O)N2Cc1ccccc1 [HCl Di-Salt Hydrate (Form 2), 1-benzyl-8-methyl-1,4,8-triazaspiro-[4.5]-decan-2-one dihydrochloride monohydrate]
[2]; 40° C./75% RH, open vial
  Observations T = One week: White solid
[2]; [6]
  HPLC Purity T = One week: 99.8%
[2]; [7]
  polymorphic form by XRPD after 1 week: increase in crystallinity
[2]; [8]
  Observations T = One week: white to off-white/orange; also recorded: Orange solid
[2]; [9]
  polymorphic form by XRPD after 1 week: did not indicate significant changes in polymorphic form
[2]; [10]
  Observations T = One week: White solid
[2]; [11]
  HPLC Purity T = One week: 99.5%
[2]; [12]
  polymorphic form by XRPD after 1 week: did not indicate significant changes in polymorphic form
[2]
  Observations T = 0: White solid
[2]; dihydrochloride monohydrate
  HPLC Purity T = 0: 99.4%
[3]; dihydrochloride monohydrate
  hygroscopicity by DVS: less hygroscopic than Form 1 between 0% and 50% RH, but more hygroscopic than Form 1 by DVS analysis >50% RH; also recorded: hygroscopic above 50% RH
  post-DVS XRPD analysis: increase in crystallinity
[3]
  hysteresis: about 0.4%
[3]; at 50% RH (0% to 50% RH), dihydrochloride monohydrate
  water uptake, sorption cycle: about 0.2%
[3]; at 80% RH, dihydrochloride monohydrate
  water uptake, sorption cycle: about 9.9%
[3]; [13]
  mass decrease, desorption cycle: 6.77%
[4]; 5% water, water activity approx. 0.5
  Observations, hydration study: White suspension
[4]; 10% water, water activity approx. 0.7
  Observations, hydration study: White suspension
[4]; 40% water, water activity approx. 0.9
  Observations, hydration study: White suspension
[4]; various IPA/water mixtures, 24 hours
  form change by XRPD on stirring in IPA/water mixtures: no form change occurred

## CN1CCC2(CC1)NCC(=O)N2Cc1ccccc1 [HCl Di-Salt Hydrate, Form 1, 1-benzyl-8-methyl-1,4,8-triazaspiro-[4.5]-decan-2-one dihydrochloride monohydrate]
[5]; [14]
  solubility: < 10000 µg/mL
[5]; [15]
  solubility: < 10000 µg/mL
[5]; 2-Propanol:water (10%)
  Solubility at 40° C.: Moderate solubility
[5]; [16]
  solubility: < 10000 µg/mL
[5]; [17]
  solubility: < 10000 µg/mL
[5]; [18]
  solubility: ~25000 µg/mL
[5]; Acetone:Water (20%)
  Solubility at 40° C.: High solubility
[5]; Dimethylsulfoxide
  Solubility at 40° C.: very high solubility
[5]; Methanol
  Solubility at 40° C.: Moderate solubility
[5]; Water
  Solubility at 40° C.: very high solubility
[5]; [19]
  solubility: < 10000 µg/mL
[5]; [20]
  solubility: < 10000 µg/mL
[5]; [21]
  solubility: ~85000 µg/mL
[5]; [22]
  solubility: < 10000 µg/mL
[5]; [23]
  solubility: < 10000 µg/mL
[5]; [24]
  solubility: < 10000 µg/mL
[5]; [25]
  solubility: > 200000 µg/mL
[5]; [26]
  solubility: < 10000 µg/mL
[5]; [27]
  solubility: < 10000 µg/mL
[5]; [28]
  solubility: < 10000 µg/mL
[5]; [29]
  solubility: < 10000 µg/mL
[5]; [30]
  solubility: ~25000 µg/mL
[5]; [31]
  solubility: < 10000 µg/mL
[5]; [32]
  solubility: < 10000 µg/mL
[5]; [33]
  solubility: < 10000 µg/mL
[5]; [34]
  solubility: < 10000 µg/mL
[5]; [35]
  solubility: < 10000 µg/mL
[5]; [36]
  solubility: < 10000 µg/mL
[5]; water
  solubility: > 200000 µg/mL
[2]; 40° C./75% RH, open vial
  Observations T = One week: White solid
[2]; [6]
  HPLC Purity T = One week: 99.0%
[2]; [7]
  polymorphic form by XRPD after 1 week: No significant changes in polymorphic form
[2]; [8]
  HPLC Purity T = One week: 99.4%
  Observations T = One week: Off-white
[2]; [9]
  polymorphic form by XRPD after 1 week: No significant changes in polymorphic form
[2]; [10]
  Observations T = One week: White solid
[2]; [11]
  HPLC Purity T = One week: 99.4%
[2]; [12]
  polymorphic form by XRPD after 1 week: No significant changes in polymorphic form
[2]
  Observations T = 0: White solid
[2]; dihydrochloride monohydrate
  HPLC Purity T = 0: 99.1%
[3]; dihydrochloride monohydrate
  hygroscopicity by DVS: hygroscopic above 50% RH
  post-DVS XRPD analysis: No significant differences in polymorphic form
[3]; at 0% RH following sorption and de-sorption profile
  final dry mass higher than the initial dry mass: 0.13%
[3]; at 50% RH
  largest hysteresis, difference in water uptake between sorption and de-sorption profile: 0.78%
[3]; at 90% RH, dihydrochloride monohydrate
  water uptake, sorption cycle: about 8.26%
[3]; [13]
  mass decrease, desorption cycle: about 2.33%

## CN1CCC2(CC1)NCC(=O)N2Cc1ccccc1.Cl [HCl mono-salt, 1-benzyl-8-methyl-1,4,8-triazaspiro-[4.5]-decan-2-one monohydrochloride]
[5]; [14]
  solubility: < 10000 µg/mL
[5]; [15]
  solubility: < 10000 µg/mL
[5]; 2-Propanol:water (10%)
  Solubility at 40° C.: very high solubility
[5]; [16]
  solubility: < 10000 µg/mL
[5]; [17]
  solubility: < 10000 µg/mL
[5]; [18]
  solubility: > 200000 µg/mL
[5]; Acetone:Water (5%)
  Solubility at 40° C.: Some solubility
[5]; Acetone:Water (20%)
  Solubility at 40° C.: very high solubility
[5]; Dimethylacetamide
  Solubility at 40° C.: Some solubility
[5]; Dimethylsulfoxide
  Solubility at 40° C.: high solubility
[5]; Ethanol
  Solubility at 40° C.: Some solubility
[5]; Methanol
  Solubility at 40° C.: very high solubility
[5]; Water
  Solubility at 40° C.: very high solubility
[5]; [19]
  solubility: < 10000 µg/mL
[5]; [20]
  solubility: ~20000 µg/mL
[5]; [21]
  solubility: > 200000 µg/mL
[5]; [22]
  solubility: < 10000 µg/mL
[5]; [23]
  solubility: < 10000 µg/mL
[5]; [24]
  solubility: ~10000 µg/mL
[5]; [25]
  solubility: ~105000 µg/mL
[5]; [26]
  solubility: ~20000 µg/mL
[5]; [27]
  solubility: < 10000 µg/mL
[5]; [28]
  solubility: < 10000 µg/mL
[5]; [29]
  solubility: < 10000 µg/mL
[5]; [30]
  solubility: > 200000 µg/mL
[5]; [31]
  solubility: < 10000 µg/mL
[5]; [32]
  solubility: < 10000 µg/mL
[5]; [33]
  solubility: < 10000 µg/mL
[5]; [34]
  solubility: < 10000 µg/mL
[5]; [35]
  solubility: < 10000 µg/mL
[5]; [36]
  solubility: < 10000 µg/mL
[5]; water
  solubility: > 200000 µg/mL
[2]; 1 week, all conditions
  loss in purity by HPLC during stability studies: No significant loss in purity
[2]; 40° C./75% RH
  polymorphic form by XRPD after 1 week: deliquesced
[2]; 40° C./75% RH, open vial
  HPLC Purity T = One week: 99.4%
  Observations T = One week: Clear liquid
[2]; 80° C.
  polymorphic form by XRPD after 1 week: retained its polymorphic form
[2]; 80° C., open vial
  HPLC Purity T = One week: 99.5%
  Observations T = One week: Off-white
[2]; [10]
  HPLC Purity T = One week: 98.6%
  Observations T = One week: White solid
[2]; ambient
  polymorphic form by XRPD after 1 week: retained its polymorphic form
[2]
  HPLC Purity T = 0: 98.8%
  Observations T = 0: White solid
[3]
  post-DVS XRPD analysis: not consistent with any of the forms previously observed
  hysteresis: 7.3%
[3]; monohydrochloride
  hygroscopicity by DVS: very hygroscopic above 70% RH; also recorded: deliquesced at high RH
[3]; at 70% RH
  water uptake, sorption cycle: 2.55%
[3]; at 90% RH
  water uptake, sorption cycle: 68.57%
[3]; between 10% and 0% RH
  mass decrease, desorption cycle: 6.10%
[3]; between 90% and 50% RH
  mass decrease, desorption cycle: 54.25%
[3]; until 60% RH
  water uptake, sorption cycle: about 0.27%
